# Assay results from patent publication US6737383B1, “Herbicidal oxadiazolidines” (priority 1999, dated 2004).
# Experiments:
# [1] = tested on: soybean; assay: Test B pre/postemergence soybean; format: in vivo, Glycine max
# Procedure, shortened: (§1)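 Test chemicals in a non-phytotoxic solvent mixture with surfactant were sprayed preemergence onto planted seeds and postemergence onto plants 2 to 18 cm tall (1- to 4-leaf stage). After twelve to sixteen days in a greenhouse, injury was visually rated against untreated controls from 0 (no effect) to 10 (complete control).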
# [2] = tested on: cocklebur; assay: Test B pre/postemergence cocklebur; format: in vivo, Xanthium strumarium
# Procedure, shortened: as §1
# [3] = tested on: pigweed; assay: Test B pre/postemergence pigweed; format: in vivo, Amaranthus retroflexus
# Procedure, shortened: as §1
# [4] = tested on: purple nutsedge; assay: Test B pre/postemergence purple nutsedge; format: in vivo, Cyperus rotundus
# Procedure, shortened: as §1
# [5] = tested on: wheat; assay: Test B pre/postemergence wheat; format: in vivo, Triticum aestivum
# Procedure, shortened: as §1
# [6] = tested on: morningglory; assay: Test B pre/postemergence morningglory; format: in vivo, Ipomoea hederacea
# Procedure, shortened: as §1
# [7] = tested on: sugar beet; assay: Test B pre/postemergence sugar beet; format: in vivo, Beta vulgaris
# Procedure, shortened: as §1
# [8] = tested on: wild oat; assay: Test B pre/postemergence wild oat; format: in vivo, Avena fatua
# Procedure, shortened: as §1
# [9] = tested on: bedstraw; assay: Test B pre/postemergence bedstraw; format: in vivo, Galium aparine; settings: Postemergence
# Procedure, shortened: as §1
# [10] = tested on: giant foxtail; assay: Test B pre/postemergence giant foxtail; format: in vivo, Setaria faberii
# Procedure, shortened: as §1
# [11] = tested on: duck salad; assay: Test B flood test duck salad; format: in vivo, Heteranthera limosa
# Procedure, shortened: (§2)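 Flood test on plants grown to the 2-leaf stage; treated plants kept in greenhouse twelve to sixteen days, then visually rated against controls on a 0 (no effect) to 10 (complete control) scale.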
# [12] = tested on: velvetleaf; assay: Test B pre/postemergence velvetleaf; format: in vivo, Abutilon theophrasti
# Procedure, shortened: as §1
# [13] = tested on: rice; assay: Test B flood test rice; format: in vivo, Oryza sativa
# Procedure, shortened: as §2
# [14] = tested on: smallflower flatsedge; assay: Test B flood test smallflower flatsedge; format: in vivo, Cyperus difformis
# Procedure, shortened: as §2
# [15] = tested on: bamyardgrass; assay: Test B flood test barnyardgrass; format: in vivo, Echinochloa crus-galli
# Procedure, shortened: as §2
# [16] = tested on: crabgrass; assay: Test B pre/postemergence crabgrass; format: in vivo, Digitaria sanguinalis
# Procedure, shortened: as §1
# [17] = tested on: rape; assay: Test B pre/postemergence rape; format: in vivo, Brassica napus
# Procedure, shortened: as §1
# [18] = tested on: surinam grass; assay: Test B pre/postemergence surinam grass; format: in vivo, Brachiaria decumbens
# Procedure, shortened: as §1
# [19] = tested on: corn; assay: Test B pre/postemergence corn; format: in vivo, Zea mays
# Procedure, shortened: as §1
# [20] = tested on: blackgrass; assay: Test B pre/postemergence blackgrass; format: in vivo, Alopecurus myosuroides
# Procedure, shortened: as §1
# [21] = Postemergence, Rate 62 g/ha, scale 0 to 10, 0 is no effect, 10 is complete control
# [22] = Postemergence, Rate 125 g/ha, scale of 0 to 10 where 0 is no effect and 10 is complete control
# [23] = Postemergence, Rate 250 g/ha, scale of 0 to 10, 0 is no effect, 10 is complete control
# [24] = Preemergence, Rate 62 g/ha, scale 0 to 10 (0 no effect, 10 complete control)
# [25] = Preemergence, Rate 125 g/ha, scale of 0 to 10 where 0 is no effect and 10 is complete control
# [26] = Preemergence, Rate 500 g/ha, scale of 0 to 10 where 0 is no effect and 10 is complete control
# [27] = Postemergence, Rate 500 g/ha, scale of 0 to 10 where 0 is no effect and 10 is complete control
# [28] = Rate 62 g/ha, flood test species, Pre-emergence, visual evaluation after twelve to sixteen days
# [29] = Rate 125 g/ha, under heading Pre-emergence, flood test species, visual evaluation after twelve to sixteen days
# [30] = Rate 250 g/ha, Pre-emergence (flood test species), scale 0 to 10, 0 is no effect, 10 is complete control
# [31] = Rate 500 g/ha, Pre-emergence section of Table B, 0 to 10 scale (0 no effect, 10 complete control)
compound,measurement,setting,value
C=C(Cn1c(=O)on(C(=O)N(c2ccccc2)C(C)C)c1=O)c1ccc(F)cc1 [Compound 606],"Plant response rating, Soybean",[1]; [21],1
same,"Plant response rating, Soybean",[1]; [22],2
same,Soybean plant response rating,[1]; [23],2
same,Soybean plant response rating,[1]; [24],0
same,Soybean plant response rating,[1]; [25],0
same,"Plant response rating, Soybean",[1]; [26],0
same,"Plant response rating, Cocklebur",[2]; [21],0
same,"Plant response rating, Cocklebur",[2]; [22],0
same,Cocklebur plant response rating,[2]; [23],0
same,"Plant response rating, Cocklebur",[2]; [27],0
same,Cocklebur plant response rating,[2]; [24],0
same,Cocklebur plant response rating,[2]; [25],0
same,Cocklebur plant response rating (0 to 10 scale),"[2]; Preemergence, Rate 250 g/ha",0
same,"Plant response rating, Cocklebur",[2]; [26],0
same,"Plant response rating, Redroot pigweed",[3]; [21],0
same,"Plant response rating, Redroot pigweed",[3]; [22],0
same,Redroot pigweed plant response rating,[3]; [23],1
same,"Plant response rating, Redroot pigweed",[3]; [27],2
same,Redroot pigweed plant response rating,[3]; [24],0
same,Redroot pigweed plant response rating,[3]; [25],0
same,"Plant response rating, Redroot pigweed",[3]; [26],0
same,"Plant response rating, Nutsedge",[4]; [21],0
same,"Plant response rating, Nutsedge",[4]; [22],0
same,"Plant response rating, Nutsedge",[4]; [27],0
same,Nutsedge plant response rating,[4]; [24],0
same,Nutsedge plant response rating,[4]; [25],0
same,"Plant response rating, Nutsedge",[4]; [26],0
same,"Plant response rating, Wheat",[5]; [21],0
same,"Plant response rating, Wheat",[5]; [22],0
same,Wheat plant response rating,[5]; [23],0
same,"Plant response rating, Wheat",[5]; [27],0
same,Wheat plant response rating,[5]; [24],0
same,Wheat plant response rating,[5]; [25],0
same,"Plant response rating, Wheat",[5]; [26],0
same,"Plant response rating, Morningglory",[6]; [21],6
same,"Plant response rating, Morningglory",[6]; [22],10
same,Morningglory plant response rating,[6]; [23],10
same,Morningglory plant response rating,[6]; [24],0
same,Morningglory plant response rating,[6]; [25],0
same,"Plant response rating, Morningglory",[6]; [26],0
same,"Plant response rating, Sugarbeets",[7]; [21],0
same,"Plant response rating, Sugarbeets",[7]; [22],0
same,Sugarbeets plant response rating,[7]; [23],0
same,"Plant response rating, Sugarbeets",[7]; [27],0
same,Sugarbeets plant response rating,[7]; [24],0
same,Sugarbeets plant response rating,[7]; [25],0
same,"Plant response rating, Sugarbeets",[7]; [26],0
same,"Plant response rating, Wild oats",[8]; [21],0
same,"Plant response rating, Wild oats",[8]; [22],0
same,Wild oats plant response rating,[8]; [23],0
same,"Plant response rating, Wild oats",[8]; [27],0
same,Wild oats plant response rating,[8]; [24],0
same,Wild oats plant response rating,[8]; [25],0
same,"Plant response rating, Wild oats",[8]; [26],3
same,"Plant response rating, Bedstraw","[9]; Rate 62 g/ha, scale 0 to 10, 0 is no effect, 10 is complete control",0
same,Bedstraw plant response rating,"[9]; Rate 250 g/ha, scale of 0 to 10, 0 is no effect, 10 is complete control",0
same,"Plant response rating, Bedstraw","[9]; Rate 500 g/ha, scale of 0 to 10 where 0 is no effect and 10 is complete control",0
same,"Plant response rating, Giant foxtail",[10]; [21],0
same,"Plant response rating, Giant foxtail",[10]; [22],0
same,Giant foxtail plant response rating,[10]; [23],0
same,"Plant response rating, Giant foxtail",[10]; [27],3
same,Giant foxtail plant response rating,[10]; [24],0
same,Giant foxtail plant response rating,[10]; [25],6
same,"Plant response rating, Giant foxtail",[10]; [26],9
same,"Plant response rating, Ducksalad (0 to 10 scale, 0 is no effect, 10 is complete control)",[11]; [28],0
same,"Ducksalad plant response rating (0 to 10 scale, 0 is no effect, 10 is complete control)",[11]; [29],0
same,Ducksalad plant response rating,[11]; [30],0
same,Ducksalad plant response rating,[11]; [31],0
same,"Plant response rating, Velvetleaf",[12]; [21],0
same,"Plant response rating, Velvetleaf",[12]; [22],0
same,Velvetleaf plant response rating,[12]; [23],0
same,"Plant response rating, Velvetleaf",[12]; [27],3
same,Velvetleaf plant response rating,[12]; [24],0
same,Velvetleaf plant response rating,[12]; [25],0
same,"Plant response rating, Velvetleaf",[12]; [26],0
same,"Plant response rating, Rice (0 to 10 scale, 0 is no effect, 10 is complete control)",[13]; [28],0
same,"Rice plant response rating (0 to 10 scale, 0 is no effect, 10 is complete control)",[13]; [29],0
same,Rice plant response rating,[13]; [30],0
same,Rice plant response rating,[13]; [31],0
same,"Plant response rating, S. Flatsedge (0 to 10 scale, 0 is no effect, 10 is complete control)",[14]; [28],0
same,"S. Flatsedge plant response rating (0 to 10 scale, 0 is no effect, 10 is complete control)",[14]; [29],0
same,S. Flatsedge plant response rating,[14]; [30],0
same,S. Flatsedge plant response rating,[14]; [31],0
same,"Plant response rating, Barnyardgrass (0 to 10 scale, 0 is no effect, 10 is complete control)",[15]; [28],0
same,"Barnyardgrass plant response rating (0 to 10 scale, 0 is no effect, 10 is complete control)",[15]; [29],0
same,Barnyardgrass plant response rating,[15]; [30],0
same,Barnyardgrass plant response rating,[15]; [31],0
same,"Plant response rating, Crabgrass",[16]; [21],0
same,"Plant response rating, Crabgrass",[16]; [22],3
same,Crabgrass plant response rating,[16]; [23],3
same,Crabgrass plant response rating,[16]; [24],0
same,"Plant response rating, Crabgrass",[16]; [26],8
same,"Plant response rating, Rape",[17]; [22],2
same,Rape plant response rating,[17]; [23],3
same,"Plant response rating, Rape",[17]; [27],4
same,Rape plant response rating,[17]; [24],0
same,Rape plant response rating,[17]; [25],0
same,"Plant response rating, Rape",[17]; [26],0
same,"Plant response rating, B. signalgrass",[18]; [21],0
same,"Plant response rating, B. signalgrass",[18]; [22],0
same,B. signalgrass plant response rating,[18]; [23],0
same,"Plant response rating, B. signalgrass",[18]; [27],0
same,B. signalgrass plant response rating,[18]; [24],0
same,B. signalgrass plant response rating,[18]; [25],0
same,"B. signalgrass plant response rating (0 to 10 scale, 0 is no effect, 10 is complete control)","[18]; Preemergence, Rate 250 g/ha",0
same,B. signalgrass plant response rating,[18]; [26],0
same,"Plant response rating, Corn",[19]; [21],0
same,"Plant response rating, Corn",[19]; [22],0
same,Corn plant response rating,[19]; [23],0
same,"Plant response rating, Corn",[19]; [27],0
same,Corn plant response rating,[19]; [24],0
same,Corn plant response rating,[19]; [25],0
same,Corn plant response rating (0 to 10 scale),"[19]; Preemergence, Rate 250 g/ha",0
same,"Plant response rating, Corn",[19]; [26],0
same,"Plant response rating, Blackgrass",[20]; [21],0
same,"Plant response rating, Blackgrass",[20]; [22],0
same,Blackgrass plant response rating,[20]; [23],0
same,"Plant response rating, Blackgrass",[20]; [27],1
same,Blackgrass plant response rating,[20]; [24],0
same,Blackgrass plant response rating,[20]; [25],0
same,Blackgrass plant response rating (0 to 10 scale),"[20]; Preemergence, Rate 250 g/ha",0
same,Blackgrass plant response rating,[20]; [26],3
